This is an account of results in EP0250254A1, “Cis & trans stilbenes and their composition for the treatment of hypertension” (McNeilab, Inc., priority 1986, dated 1987).

Assay [1] has as its system spontaneously hypertensive rats. In words: Spontaneously Hypertensive Rat (SHR) test, arterial pressure monitored via aortic cannula. The following applies: SH rats. Type of assay: in vivo. As to the method: The activity of compounds of formula (I) for the treatment of hypertension was determined using the Spontaneously Hypertensive Rat (SHR) test as described below.
In this test, the arterial pressure of adult spontaneously hypertensive rats (Charles River) is monitored directly via an aortic cannula. The SH rats are anesthetized with an intravenous anesthetic (methohexital). The left carotid artery is isolated and cannulated. The tip of the cannula is advanced to the aorta and the cannula is exteriorized behind the neck at the level of the scapula. Animals are placed in individual cages and allowed to recover from the anesthetic and are kept unrestrained. The arterial cannula is connected to the pressure transducer which is attached to the recorder. The test compounds are administered to at least 3 rats at doses selected in the range of 0.l to l00 mg/kg of body weight by intraperitoneal (i.p.) or oral (p.o.) routes of administration. The arterial pressure and heart rate are monitored for a minimum of 22 hours. A test compound is considered to be active as an antihypertensive agent if the mean arterial pressure (MAp) indicates a fall of >l5 mm of Hg. Each animal serves as its own control.
The results of this test for compounds of formula (I). expressed as "Max Fall Bp" (Maximum Fall in Mean Arterial pressure) are shown in Table I.

Assay [2] deals with coronary arteries. In words: Langendorff's isolated heart preparation, increase in coronary flow. The note with it: read-out: EC30 (minimum concentration needed to elicit a 30 percent increase in coronary flow). How it is done:
In addition to their utility in the treatment of hypertension, the compounds of formula (I) are useful in the treatment of the symptoms of angina pectoris by virtue of their ability to dilate coronary arteries. Their activity was measured using the "Langendorff's isolated heart" preparation. This test has been described in "Pharmacological Experiments on Isolated Preparations", Staff of the Department of Pharmacology, University of Edinborough, 2nd Ed., Churchill Livingstone, N.Y., l970, pp. ll2-ll9. The test compounds were administered at concentrations of 3000, l000, 300, l00, 30, l0, 3, l and 0.3 nanomolar (l0⁻⁹ molar).
The minimum concentration (EC₃₀) needed to elicit a 30 percent increase in coronary flow is shown in Table I for compounds of the formula (I) with […].

Setting [3] is: dose 30 mg/kg of body weight p.o., salt form tested per footnotes.

The structures appear in SMILES notation. Counter-ions that a name gives are not always drawn. Like-named read-outs stand apart in the source and are kept apart here. Marks after values point to notes of the source that are not given here.

As for `COc1ccc(/C=C/c2ccccc2)c(CCCN(C)CCc2ccc(OC)c(OC)c2)c1` [Example 7e, N-[2-(3,4-Dimethoxyphenyl)ethyl]-5-methoxy-N-methyl-2E-(2-phenylethenyl)benzenepropanamine Biscyclohexylsulfamate], in assay [1] (setting [3]), the “Max Fall BP (Maximum Fall in Mean Arterial pressure)” value (from here on “Max Fall BP”) is reported as 16 (30) mm of Hg. In addition, in assay [2] (salt form tested per footnotes), the EC30 came out at 0.4 nM.
Consider `COc1ccc(/C=C/c2ccccc2)c(CC(C)NCCc2ccc(OC)c(OC)c2)c1` (stereo not drawn) [Example 8b, N-[2-(3,4-Dimethoxyphenyl)ethyl]-5-methoxy-α-methyl-2E-(2-phenylethenyl)benzeneethanamine Hydrochloride], for which the “Max Fall BP” value in assay [1] (dose 10 mg/kg of body weight p.o., tested as the chloride salt) is 80 (10) mm of Hg; in assay [1] (setting [3]), 77 (30) mm of Hg. Further, the EC30 in assay [2] (salt form tested per footnotes) was found to be 1 nM.
For the molecule `COc1ccc(/C=C\c2ccccc2)c(CCC(C)N(C)CCc2ccc(OC)c(OC)c2)c1` (stereo not drawn) [Example 6e, N-[2-(3,4-Dimethoxyphenyl)ethyl]-5-methoxy-N,α-dimethyl-2Z-(2-phenylethenyl)benzenepropanamine (E)-2-Butenedioate (2:l)], the “Max Fall BP” value in assay [1] (setting [3]) is 17 (30) mm of Hg. Also, in assay [2] (salt form tested per footnotes), the EC30 was 19 nM.
The like results for `COc1ccc(/C=C\c2ccccc2)c(CC(C)NCCc2c(Cl)cccc2Cl)c1` (stereo not drawn) [Example 2d, N-[2-(2,6-Dichlorophenyl)ethyl]-5-methoxy-α-methyl-2Z-(2-phenylethenyl)benzeneethanamine (E)-2-Butenedioate (2:l)] were, in that order, 18 (30) mm of Hg and 55 nM.
Regarding `COc1cc(CCNC(C)Cc2cc(OC)ccc2/C=C\c2ccccc2)cc(OC)c1` (stereo not drawn) [Example 3c, N-[2-(3,5-Dimethoxyphenyl)ethyl]-5-methoxy-α-methyl-2Z-(2-phenylethenyl)benzeneethanamine (E)-2-Butenedioate (2:l)], the “Max Fall BP” value in assay [1] (dose 10 mg/kg of body weight given i.p., tested as the fumarate salt) is reported as 38 (10)^b mm of Hg. Besides, in assay [2] (salt form tested per footnotes), the EC30 is 57 nM.
Turning to `COc1cc(CCNC(C)Cc2cc(OC)ccc2/C=C/c2ccccc2)cc(OC)c1` (stereo not drawn) [Example 10, N-[2-(3,5-Dimethoxyphenyl)ethyl]-5-methoxy-α-methyl-2E-(2-phenylethenyl)benzeneethanamine (E)-2-Butendioate (3:5)], in assay [1] (setting [3]), the “Max Fall BP” value is listed as 53 (30)* mm of Hg. In addition, in assay [2] (tested as free base), the EC30 is 1 nM.
Take `COc1ccc(/C=C\c2ccccc2)c(CC(C)NCCc2ccc(OC)c(OC)c2)c1` (stereo not drawn) [Example 4c, N-[2-(3,4-Dimethoxyphenyl)ethyl]-5-methoxy-α-methyl-2Z-(2-phenylethenyl)benzeneethanamine Hydrochloride]: the “Max Fall BP” value in assay [1] (setting [3]) is 21 (30) mm of Hg. Also, the EC30 in assay [2] (salt form tested per footnotes) amounted to 2 nM.
With `COc1ccc(/C=C/c2ccccc2)c(CC(C)NCCc2ccc(Cl)c(Cl)c2)c1` (stereo not drawn) [Example 9, N-[2-(3,4-Dichlorophenyl)ethyl)-5-methoxy-α-methyl-2E-(2-phenylethenyl)benzeneethanamine Hydrochloride], the “Max Fall BP” value in assay [1] (setting [3]) is listed as 90 (30) mm of Hg. Besides, the EC30 in assay [2] (salt form tested per footnotes) stood at 24 nM.
As for `COc1ccc(/C=C/c2ccccc2)c(CCC(C)N(C)CCc2ccc(OC)c(OC)c2)c1` (stereo not drawn) [Example 5, N-[2-(3,4-Dimethoxyphenyl)ethyl]-5-methoxy-N,α-dimethyl-2E-(2-phenylethenyl)benezenepronanamine Hydrochloride], the “Max Fall BP” value in assay [1] (setting [3]) was 43 (30) mm of Hg. The EC30 in assay [2] (salt form tested per footnotes) turned out to be 12 nM.
